Values of other authors in patent US20160303150A1, “DEUTERATED TREHALOSE FORMULATIONS AND USES THEREOF” (BioBlast Pharma Ltd., priority 2015, published 2016).

Key:
[1] = in vivo
[2] = system: transgenic HD mice
[3] = system: transgenic OPMD mice
[4] = 0.2%-5% trehalose in drinking water, 5-9 weeks, transgenic HD mice

For OC[C@H]1O[C@H](O[C@H]2O[C@H](CO)[C@@H](O)[C@H](O)[C@H]2O)[C@H](O)[C@@H](O)[C@@H]1O [trehalose, α-G-glucopyranosyl α-D-glucopyranoside], the “fraction of administered trehalose not absorbed into the blood stream” value [1] is listed as “over 99.5%”, the HD-related motor symptoms [2, 4] is listed as “improvement of HD-related motor symptoms” and the “formation of intra-nuclear huntingtin aggregates in the brain and liver” value [2, 4] is listed as “inhibition of formation of intra-nuclear huntingtin aggregates in the brain and liver”. For the same compound, the survival ([2]; oral administration, HD mouse model) was “extend survival”, the “aggregation formation and toxicity of mutant PABPN1 in myocytes” value ([3]; 2% trehalose in drinking water, 4-6 months) was “significantly reduce aggregation formation and toxicity of the mutant PABPN1 in myocytes” and the “OPMD onset, disease phenotype, aggregate formation and cell death” value ([3]; oral trehalose) was “delay the OPMD onset, attenuate the disease phenotype, decrease polyalanine protein aggregate formation and decrease cell death”. For the same compound, the “oral amount causing diarrhea and bloating” value (oral) was 40-50 gram per day, the “safety findings in healthy volunteers” value (oral doses ranging from 10 to 60 gr, healthy volunteers) was “no other safety issues were reported” and the “oral amount frequently causing diarrhea, bloating and discomfort” value (oral, humans) was “higher than 50 g a day”.
